We go through two molecules from patent US10010561B2, “Method of treating cancer using high efficiency self-illuminative nanocomplexes and method of manufacturing the same” (Research & Business Foundation Sungkyunkwan University, priority 2014, dated 2018).

{SH} = thiol linker

A short description of data set [1]: doxorubicin capture in linear nucleic acid, doxorubicin autofluorescence. The format is physicochemical. The note with it: room temperature, 24 hours; linear nucleic acid:doxorubicin 1:1 to 1:20; FIG. 5. As for the experimental part:
To contain doxorubicin in a new nucleic acid-based functional anticancer drug, linear nucleic acids represented by SEQ. ID. NO: 2 ([NT]) and SEQ. ID. NO: 3 (5'-/thiol/[NT]3') were used. To prepare a doxorubicin-binding linear nucleic acid, the linear nucleic acid and doxorubicin were mixed with various concentrations (linear nucleic acid:doxorubicin=1:1 to 1:20) and reacted at room temperature for 24 hours, and autofluorescence of the doxorubicin was detected.

Data set [2] is described as follows: luminescence activity of m-Rluc8 compared with wild-type luciferase. The format is biochemical. As to conditions: versus wild-type luciferase purified by the same method; FIG. 2. An excerpt: To obtain a high efficiency self-luminescent light source, a modified self-illuminative protein (m-Rluc8) in which artificial mutation occurred on an amino acid sequence of a wild-type luciferase was expressed in E. coli and purified. That is, an expression vector (m-Rluc8_pPAL7) into which the modified self-illuminative protein (m-Rluc8) consisting of an amino acid sequence (SEQ. ID. NO: 1) shown in FIG. 1 was inserted was manufactured, transformed into and expressed in E. coli BL21 strain cells and then purified, thereby obtaining a high purity modified self-illuminative protein (m-Rluc8).

With “linear nucleic acid (DNA GTCGCAGGCACATCAGTACAGCCAGATCCGTACCTACTCG; DNA, 5' {SH}, backbone and methylation of C not given here; conjugated to gold)”, in data set [1], the “maximum doxorubicin binding to 1 μM linear nucleic acid” value was 10 µM.

B1: m-Rluc8: modified self-illuminative protein of SEQ. ID. NO: 1, wild-type Renilla luciferase mutated at 8 sites (protein)
chain: MASKVYDPEQRKRMITGPQWWARCKQMNVLDSFINYYDSEKHAENAVIFLHGNATSSYLWRHVVPHIEPVARCIIPDLIGMGKSGKSGNGSYRLLDHYKYLTAWFELLNLPKKIIFVGHDWGAALAFHYAYEHQDRIKAIVHMESVVDVIESWDEWPDIEEDIALIKSEEGEKMVLENNFFVETVLPSKIMRKLEPEEFAAYLEPFKEKGEVRRPTLSWPREIPLVKGGKPDVVQIVRNYNAYLRASDDLPKLFIESDPGFFSNAIVEGAKKFPNTEFVKVKGLHFLQEDAPDEMGKYIKSFVERVLKNEQ
modifications: Renilla luciferase
notes: ID; NO: 1, wild-type Renilla luciferase mutated at 8 sites
For B1, in data set [2], the “luminescence activity relative to wild-type luciferase” value was “more than 5.65 fold”.
